Measured values reported in patent publication US12612368B2 (Remedy Plan, Inc., priority 2019, dated 2026).
Like-named read-outs stand apart in the source and are kept apart here.

Experiments:
MV-4-11 cells = assay: Cell viability in MV-4-11 cells (CellTiter Glo2); assay type: cell-based; conditions: Homo sapiens, MV4-11, 96 h, 8-point dose response, 4 days
Protocol: Approximately 10,000 MV-4-11 cells per well of a 96-well plate were treated with DMSO (no drug control) or each compound in Tables E1 and E2 in an 8-point dose response for 4 days, Cell viability was measured using CellTiter Glo2. The ICse of each compound was determined using CDD Vault.

NAMPT = target: T1, NAMPT (Homo sapiens, UniProt P43490); assay: NAMPT Activity Assay (Abcam #ab221819); assay type: biochemical; conditions: purified NAMPT, two-step reaction, OD450 nm; percent inhibition vs no drug; compound concentration not stated
T1 construct: purchased Abcam ab221819
T1 sequence (P43490 whole entry): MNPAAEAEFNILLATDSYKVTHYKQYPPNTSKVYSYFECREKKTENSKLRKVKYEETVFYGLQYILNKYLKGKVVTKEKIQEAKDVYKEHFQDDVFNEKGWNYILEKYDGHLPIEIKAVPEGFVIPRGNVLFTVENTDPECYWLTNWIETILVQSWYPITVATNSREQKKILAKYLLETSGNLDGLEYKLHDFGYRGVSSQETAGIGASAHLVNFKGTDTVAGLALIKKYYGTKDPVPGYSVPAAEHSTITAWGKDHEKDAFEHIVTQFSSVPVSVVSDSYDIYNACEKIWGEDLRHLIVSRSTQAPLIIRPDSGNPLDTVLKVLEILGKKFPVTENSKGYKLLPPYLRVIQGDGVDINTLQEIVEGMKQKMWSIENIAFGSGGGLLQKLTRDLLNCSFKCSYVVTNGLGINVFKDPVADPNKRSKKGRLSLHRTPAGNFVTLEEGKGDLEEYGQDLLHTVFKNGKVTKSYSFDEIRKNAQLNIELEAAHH

[1] = CellTiter Glo2 (Table E1), read-out: MV-4-11 IC50
[2] = CellTiter Glo2 (Table E2), read-out: MV-4-11 Cell Viability, MV-4-11 IC50

Structure (SMILES)	IC50 (MV-4-11 cells; [1])	NAMPT Inhibition Code (NAMPT)	IC50 (MV-4-11 cells; [2])
CCC(=O)N(C)c1ccc(-c2ccc(C(=O)NCc3ccc(F)nc3)cn2)cc1 [Compound I-393, N-[(6-fluoro-3-pyridyl)methyl]-6-[4-[methyl(propanoyl)amino]phenyl]pyridine-3-carboxamide]	> 30000 nM	A (A = <33% inhibition)	
CCCN(C(C)=O)c1ccc(-c2ccc(C(=O)NCc3cccnc3C)cn2)cc1C [Compound I-446, 6-[4-[acetyl(propyl)amino]-3-methyl-phenyl]-N-[(2-methyl-3-pyridyl)methyl]pyridine-3-carboxamide]	2170 nM	A (A = <33% inhibition)	
CC(=O)N(CC1CC1)c1ccc(-c2ccc(C(=O)NCc3cccnc3)cn2)cc1Cl [Compound I-602, 6-[4-[Acetyl(cyclopropylmethyl)amino]-3-chloro-phenyl]-N-(3-pyridylmethyl)pyridine-3-carboxamide]		C (C = ≥66% inhibition)	5.56 nM
CCN(C(C)=O)c1ccc(-c2ccc(C(=O)NCc3cccnc3)cn2)cc1Cl [Compound I-652, 6-[4-[Acetyl(ethyl)amino]-3-chloro-phenyl]-N-(3-pyridylmethyl)pyridine-3-carboxamide]		C (C = ≥66% inhibition)	92.4 nM
CCOC(=O)NCCN(C(C)=O)c1ccc(-c2ccc(C(=O)NCc3cccnc3C)cn2)cc1C [Compound I-486, Ethyl N-[2-[N-acetyl-2-methyl-4-[5-[(2-methyl-3-pyridyl)methylcarbamoyl]-2-pyridyl]anilino]ethyl]carbamate]		A (A = <33% inhibition)	2700 nM
